The values below come from patent US20230371511A1, “MIXTURES CONTAINING CYCLOBUTRIFLURAM” (BASF SE, priority 2020, published 2023).

Assay type in all cases: cell-based
Common to all, as to details: single active, 7 days after inoculation

The subject of test [1] is Septoria tritici. As to the kind of experiment: Microtest: activity against leaf blotch on wheat caused by Septoria tritici (MTP growth, 405 nm). As for the experimental part:
(§1) The active compounds were formulated separately as a stock solution having a concentration of 10000 ppm in dimethyl sulfoxide.
The stock solutions were mixed according to the ratio, pipetted onto a micro titer plate (MTP) and diluted with water to the stated concentrations. A spore suspension of Septoria tritici in an aqueous biomalt or yeast-bactopeptone-glycerine or DOB solution was then added. The plates were placed in a water vapor-saturated chamber at a temperature of 18° C. Using an absorption photometer, the MTPs were measured at 405 nm 7 days after the inoculation.
(§2) The measured parameters were compared to the growth of the active compound-free control variant (100%) and the fungus-free blank value to determine the relative growth in % of the pathogens in the respective active compounds.
(§3) These percentages were converted into efficacies.
(§4) An efficacy of 0 means that the growth level of the pathogens corresponds to that of the untreated control; an efficacy of 100 means that the pathogens were not growing.
(§5) The expected efficacies of active compound mixtures were determined using Colby's formula [R. S. Colby, “Calculating synergistic and antagonistic responses of herbicide combinations”, Weeds 15, 20-22 (1967)] and compared with the observed efficacies.

The test system of test [2] is Colletotrichum orbiculare. As to the kind of experiment: Microtest: activity against anthracnose caused by Colletotrichum orbiculare (MTP growth, 405 nm).
Description: as §1, §2, §3
The stock solutions were mixed according to the ratio, pipetted onto a micro titer plate (MTP) and diluted with water to the stated concentrations. A spore suspension of Colletotrichum orbiculare in an aqueous bio malt solution was then added. The plates were placed in a water vapor-saturated chamber at a temperature of 18° C. Using an absorption photometer, the MTPs were measured at 405 nm 7 days after the inoculation.
as §4, §5

For test [3], the system named is Alternaria solani. As to the kind of experiment: Microtest: activity against early blight caused by Alternaria solani (MTP growth, 405 nm).
Description: as §1, §2, §3
The stock solutions were mixed according to the ratio, pipetted onto a micro titer plate (MTP) and diluted with water to the stated concentrations. A spore suspension of Alternaria solani in an aqueous biomalt or yeast-bactopeptone-glycerine or DOB solution was then added. The plates were placed in a water vapor-saturated chamber at a temperature of 18° C. Using an absorption photometer, the MTPs were measured at 405 nm 7 days after the inoculation.
as §4, §5

In test [4] the test system is Rhizoctonia solani. Put plainly: Microtest: activity against Rhizoctonia solani (MTP growth, 405 nm). As for the experimental part:
as §1
The stock solutions were mixed according to the ratio, pipetted onto a micro titer plate (MTP) and diluted with water to the stated concentrations. A spore suspension of Rhizoctonia solani in an aqueous biomalt or yeast-bactopeptone-glycerine or COB solution was then added. The plates were placed in a water vapor-saturated chamber at a temperature of […]. Using an absorption photometer, the MTPs were measured at 405 nm 7 days after the inoculation.
as §2, §3, §4, §5

Test [5] relates to Cercospora sojina. As to the kind of experiment: Microtest: activity against Cercospora sojina (MTP growth, 405 nm). How it is done: as §1
The stock solutions were mixed according to the ratio, pipetted onto a micro titer plate (MTP) and diluted with water to the stated concentrations. A spore suspension of Cercospora sojina in an aqueous biomalt or yeast-bactopeptone-glycerine or COB solution was then added. The plates were placed in a water vapor-saturated chamber at a temperature of 18° C. Using an absorption photometer, the MTPs were measured at 405 nm 7 days after the inoculation.
as §2, §3, §4, §5

The mark [6] stands for this setting: 0.25 ppm, 0 = growth as untreated control, 100 = no growth.

For the compound `CC(O)(Cn1cncn1)c1ccc(Oc2ccc(Cl)cc2)cc1C(F)(F)F` (stereo not drawn) [Mefentrifluconazol, mefentrifluconazole], the Observed efficacy in test [1] (0 ppm (so in the source)) worked out at 68; in test [1] (0.063 ppm), 61; in test [1] (setting [6]), 70.

For the compound `Cc1nc2c(F)c(F)ccc2cc1Oc1cccc(F)c1C(C)(C)O` [Ipflufenoquin, ipflufenoquin], the figures for the Observed efficacy in test [2] (0.25 ppm) and in test [3] (0.004 ppm) were 25 and 9, respectively.

Regarding `COCC(=O)N(c1c(C)cccc1C)[C@H](C)C(=O)OC` [Mefenoxam, mefenoxam], the Observed efficacy in test [1] (0.063 ppm) turned out to be 6; in test [1] (1 ppm) it was 4; in test [1] (4 ppm), 2.

With `Cc1cc(C(F)(F)F)nn1CC(=O)N1CCC(c2nc(C3=NOC(c4c(F)cccc4F)C3)cs2)CC1` (stereo not drawn) [Oxathiapirolin, oxathiapiprolin], the Observed efficacy in test [3] (0.063 ppm) worked out at 0.

With `O=C(NC1CCC1c1ccc(Cl)cc1Cl)c1cccnc1C(F)(F)F` (stereo in doubt) [Cyclobutrifluram, cyclobutrifluram], the Observed efficacy in test [2] (1 ppm) was 1; in test [4] (1 ppm), 0; in test [5] (0.016 ppm), 18; in test [3] (0.004 ppm), 40; in test [3] (0.016 ppm), 74; in test [1] (0.063 ppm), 0. For the same compound, the Observed efficacy in test [1] (setting [6]) is on record as 7.

For `CON(C(=O)c1cn(C)nc1C(F)F)C(C)Cc1c(Cl)cc(Cl)cc1Cl` (stereo not drawn) [Pydiflumetofen, pydiflumetofen], the Observed efficacy in test [5] (0.00025 ppm) amounted to 9; in test [1] (0.004 ppm) it was 5; in test [1] (0.016 ppm), 23.

As to `Cn1nnnc1/C(=N\OCc1cccc(NC(=O)OC(C)(C)C)n1)c1ccccc1` [Picarbutrazox, picarbutrazox], in test [3] (0.063 ppm), the Observed efficacy is reported as 8.

Consider `Cn1cc(C(=O)Nc2ccccc2-c2cc(F)c(F)c(F)c2)c(C(F)F)n1` [Fluxapyroxad, fluxapyroxad], for which the Observed efficacy in test [4] (0.25 ppm) is 46.
